Source: US20050080060A1, “Antigestagenically active steroids with a fluorinated 17alpha-alkyl chain” (priority 1997, published 2005)

Legend:
Type in all cases: in vivo, rat
prostate weight = test: Androgen test on rats p.o. (stimulation of the prostate weight)
Experimental: (§1) The tests below were all performed on rats according to known methods.
Androgen test p.o.: Stimulation of the prostate weight with the test compound, vehicle: s.c. benzylbenzoate, castor oil (1+4); p.o. NaCl-myrj; reference compound testosterone propionate. Virtually no stimulation of the prostate weight is observed up to a dose of 10 mg of test compound/animal/day.

uterus weight = test: Uterus growth test on rats p.o. for estrogenic action; details: ovariectomized rats, 3-day treatment
Experimental: The tests below were all performed on rats according to known methods. Uterus growth test p.o. for estrogenic action: Stimulation of uterus weight with the test compound, vehicle: s.c. benzylbenzoate/castor oil (1+4); p.o. NaCl-myrj; 3-day treatment of ovariectomized animals; parameters: uterus weight and endometrial epithelium height; vaginal smear negative; reference compound: estradiol 0.1 μg.

rats = test: Abortive test on rats s.c. and p.o.
Text: as §1
Abortive test s.c. and p.o.: See, for example, EP-A 0 283 428.

[1] = system: dexamethasone-induced thymus suppression; test: Antithymolysis test on rats p.o. on antiglucocorticoid action
Text: The tests below were all performed on rats according to known methods. Antithymolysis test p.o. on antiglucocorticoid action: See, for example, EP-A 0 283 428.

For `C=C1CCOC12CCC1C3CCC4=CC(=O)CCC4=C3C(c3ccc(C(C)=O)cc3)CC12C` (stereo not drawn) [E, 11β-(4-Acetylphenyl)-19,24-dinor-17,23-epoxy-17α-chola-4,9,20-trien-3-one, reference compound], the “Androgen test on rats p.o. (% prostate stimulation)” value (prostate weight; dose 1 mg/animal/day) was “(4.0) %”, the “Androgen test on rats p.o. (% prostate stimulation)” value (prostate weight; dose 3 mg/animal/day) was “(5.6) %” and the “Androgen test on rats p.o. (% prostate stimulation)” value (prostate weight; dose 10 mg/animal/day) was “(4.4) %”. The “Uterus growth test on rats p.o. (% uterus weight stimulation)” value (uterus weight; dose 3 mg/animal/day) was “(1.3) %”, the “Uterus growth test on rats p.o. (% uterus weight stimulation)” value (uterus weight; dose 10 mg/animal/day) was “(2.4) %” and the “Abortive test on rats p.o. (n abortion/n total)” value (rats; dose 0.03 mg/animal/day) was “(0/4)”. For the same compound, the “Abortive test on rats p.o. (n abortion/n total)” value (rats; dose 0.1 mg/animal/day) was “(4/4)”, the “Abortive test on rats p.o. (n abortion/n total)” value (rats; dose 0.3 mg/animal/day) was “(4/4)” and the “Abortive test on rats s.c. (n abortion/n total)” value (rats; dose 0.03 mg/animal/day) was “(0/4)”. The “Abortive test on rats s.c. (n abortion/n total)” value (rats; dose 0.1 mg/animal/day) was “(3/4)”, the “Abortive test on rats s.c. (n abortion/n total)” value (rats; dose 0.3 mg/animal/day) was “(4/4)” and the “Antithymolysis test on rats p.o. (% elimination of dexamethasone-induced thymus suppression)” value ([1]; dose 1 mg/animal/day) was “(4.3) %”. The “Antithymolysis test on rats p.o. (% elimination of dexamethasone-induced thymus suppression)” value ([1]; dose 3 mg/animal/day) was “(19.1) %” and the “Antithymolysis test on rats p.o. (% elimination of dexamethasone-induced thymus suppression)” value ([1]; dose 10 mg/animal/day) was “(44.7) %”.

For `CC#C[C@]1(O)CC[C@H]2[C@@H]3CCC4=CC(=O)CCC4=C3[C@@H](c3ccc(N(C)C)cc3)C[C@@]21C` [D, 11β-[4-(Dimethylamino)phenyl]-17β-hydroxy-17α-(1-propinyl)estra-4,9-dien-3-one, reference compound], the “Androgen test on rats p.o. (% prostate stimulation)” value (prostate weight; dose 1 mg/animal/day) was “(1.6) %”, the “Androgen test on rats p.o. (% prostate stimulation)” value (prostate weight; dose 3 mg/animal/day) was “(2.9) %” and the “Androgen test on rats p.o. (% prostate stimulation)” value (prostate weight; dose 10 mg/animal/day) was “(7.2) %”. The “Uterus growth test on rats p.o. (% uterus weight stimulation)” value (uterus weight; dose 10 mg/animal/day) was “(6.4) %”, the “Antithymolysis test on rats p.o. (% elimination of dexamethasone-induced thymus suppression)” value ([1]; dose 1 mg/animal/day) was “(19) %” and the “Antithymolysis test on rats p.o. (% elimination of dexamethasone-induced thymus suppression)” value ([1]; dose 3 mg/animal/day) was “(79) %”. The “Antithymolysis test on rats p.o. (% elimination of dexamethasone-induced thymus suppression)” value ([1]; dose 10 mg/animal/day) was “(76) %”.

`CC(=O)c1ccc([C@H]2C[C@@]3(C)[C@@H](CC[C@@]3(O)C(F)(F)C(F)(F)F)[C@@H]3CCC4=CC(=O)CCC4=C32)cc1` [B, 11β-(4-Acetylphenyl)-17β-hydroxy-17α-(1,1,2,2,2-pentafluoroethyl)estra-4,9-dien-3-one] was tested, and the “Androgen test on rats p.o. (% prostate stimulation)” value (prostate weight; dose 1 mg/animal/day) was “(2.1) %”, the “Androgen test on rats p.o. (% prostate stimulation)” value (prostate weight; dose 3 mg/animal/day) was “(0) %” and the “Uterus growth test on rats p.o. (% uterus weight stimulation)” value (uterus weight; dose 10 mg/animal/day) was “(2.6) %”. For the same compound, the “Abortive test on rats p.o. (n abortion/n total)” value (rats; dose 0.03 mg/animal/day) was “(4/4)”, the “Abortive test on rats p.o. (n abortion/n total)” value (rats; dose 0.1 mg/animal/day) was “(4/4)” and the “Abortive test on rats p.o. (n abortion/n total)” value (rats; dose 0.3 mg/animal/day) was “(4/4)”. For the same compound, the “Abortive test on rats s.c. (n abortion/n total)” value (rats; dose 0.03 mg/animal/day) was “(4/4)”, the “Abortive test on rats s.c. (n abortion/n total)” value (rats; dose 0.1 mg/animal/day) was “(4/4)” and the “Abortive test on rats s.c. (n abortion/n total)” value (rats; dose 0.3 mg/animal/day) was “(4/4)”. For the same compound, the “Antithymolysis test on rats p.o. (% elimination of dexamethasone-induced thymus suppression)” value ([1]; dose 1 mg/animal/day) was “(1.2) %”, the “Antithymolysis test on rats p.o. (% elimination of dexamethasone-induced thymus suppression)” value ([1]; dose 3 mg/animal/day) was “(21.6) %” and the “Antithymolysis test on rats p.o. (% elimination of dexamethasone-induced thymus suppression)” value ([1]; dose 10 mg/animal/day) was “(18.2) %”.

In the case of “6′-Acetyl-9,11α-dihydro-17β-hydroxy-17α-(1,1,2,2,2-pentafluoroethyl)-4′H-naphth[3′,2′,1′:10,9,11]estr-4-en-3-one [Compound C]”, the “Uterus growth test on rats p.o. (% uterus weight stimulation)” value (uterus weight; dose 10 mg/animal/day) is reported as “(4.4) %”, the “Abortive test on rats p.o. (n abortion/n total)” value (rats; dose 0.003 mg/animal/day) is reported as “(4/4)” and the “Abortive test on rats p.o. (n abortion/n total)” value (rats; dose 0.01 mg/animal/day) is reported as “(4/4)”. The “Abortive test on rats p.o. (n abortion/n total)” value (rats; dose 0.03 mg/animal/day) was “(4/4)”, the “Abortive test on rats p.o. (n abortion/n total)” value (rats; dose 0.1 mg/animal/day) was “(4/4)” and the “Abortive test on rats p.o. (n abortion/n total)” value (rats; dose 0.3 mg/animal/day) was “(4/4)”. For the same compound, the “Abortive test on rats s.c. (n abortion/n total)” value (rats; dose 0.03 mg/animal/day) was “(4/4)”, the “Abortive test on rats s.c. (n abortion/n total)” value (rats; dose 0.1 mg/animal/day) was “(4/4)” and the “Abortive test on rats s.c. (n abortion/n total)” value (rats; dose 0.3 mg/animal/day) was “(4/4)”. The “Antithymolysis test on rats p.o. (% elimination of dexamethasone-induced thymus suppression)” value ([1]; dose 2.2 mg/animal/day) was “(7.2) %”, the “Antithymolysis test on rats p.o. (% elimination of dexamethasone-induced thymus suppression)” value ([1]; dose 6.7 mg/animal/day) was “(31.6) %” and the “Antithymolysis test on rats p.o. (% elimination of dexamethasone-induced thymus suppression)” value ([1]; dose 22 mg/animal/day) was “(18.8) %”.

For `CC(=O)c1ccc(C2CC3(C)C(CCC3(O)C(F)(F)C(F)(F)F)C3CCC4=CC(=O)CCC4C23)cc1` (stereo not drawn) [Compound A, 11β-(4-Acetylphenyl)-17β-hydroxy-17α-(1,1,2,2,2-pentafluoroethyl)estr-4-en-3-one], the “Androgen test on rats p.o. (% prostate stimulation)” value (prostate weight; dose 1 mg/animal/day) was “(4.8) %”, the “Androgen test on rats p.o. (% prostate stimulation)” value (prostate weight; dose 3 mg/animal/day) was “(3.3) %” and the “Uterus growth test on rats p.o. (% uterus weight stimulation)” value (uterus weight; dose 10 mg/animal/day) was “(3.7) %”. The “Abortive test on rats p.o. (n abortion/n total)” value (rats; dose 0.03 mg/animal/day) was “(4/4)”, the “Abortive test on rats p.o. (n abortion/n total)” value (rats; dose 0.1 mg/animal/day) was “(4/4)” and the “Abortive test on rats p.o. (n abortion/n total)” value (rats; dose 0.3 mg/animal/day) was “(4/4)”. The “Abortive test on rats s.c. (n abortion/n total)” value (rats; dose 0.03 mg/animal/day) was “(4/4)”, the “Abortive test on rats s.c. (n abortion/n total)” value (rats; dose 0.1 mg/animal/day) was “(4/4)” and the “Abortive test on rats s.c. (n abortion/n total)” value (rats; dose 0.3 mg/animal/day) was “(4/4)”. The “Antithymolysis test on rats p.o. (% elimination of dexamethasone-induced thymus suppression)” value ([1]; dose 1 mg/animal/day) was “(6.0) %”, the “Antithymolysis test on rats p.o. (% elimination of dexamethasone-induced thymus suppression)” value ([1]; dose 3 mg/animal/day) was “(7.4) %” and the “Antithymolysis test on rats p.o. (% elimination of dexamethasone-induced thymus suppression)” value ([1]; dose 10 mg/animal/day) was “(11.5) %”.
